Measurements reported in PubChem BioAssay (NCI).
“And” between values parts separate entries of the source, which are not always exact repeats. Identical values can stand only once.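 Exposure lasted 48 hours, with cells grown in 96-well plates and compounds tested at five concentrations. At the GI50, growth is halved. The concentration for full growth arrest is given as TGI.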

What was measured:
Assay in all cases: NCI anticancer screen, dose series, 48 h
A498 renal = test system: A498 renal
HCC-2998 colon = test system: HCC-2998 colon
OVCAR-4 ovarian = test system: OVCAR-4 ovarian
DU-145 prostate = test system: DU-145 prostate
SN12C renal = test system: SN12C renal
PC-3 prostate = test system: PC-3 prostate
RPMI-8226 leukemia = test system: RPMI-8226 leukemia
SNB-19 CNS = test system: SNB-19 CNS
SK-MEL-28 melanoma = test system: SK-MEL-28 melanoma
NCI-H23 lung = test system: NCI-H23 lung

Row | SMILES | TGI (A498 renal) | TGI (HCC-2998 colon) | TGI (OVCAR-4 ovarian) | TGI (DU-145 prostate) | TGI (SN12C renal) | TGI (PC-3 prostate) | TGI (RPMI-8226 leukemia) | TGI (SNB-19 CNS) | TGI (SK-MEL-28 melanoma) [µM] | TGI (NCI-H23 lung) | GI50 (A498 renal) | GI50 (HCC-2998 colon) | GI50 (OVCAR-4 ovarian) | GI50 (DU-145 prostate) | GI50 (SN12C renal) | GI50 (PC-3 prostate) | GI50 (RPMI-8226 leukemia) | GI50 (SNB-19 CNS) | GI50 (SK-MEL-28 melanoma) | GI50 (NCI-H23 lung)
1 | C[C@H]1[C@H](C)N1CC(O)Cn1ccnc1[N+](=O)[O-] (some centres undefined) | > 100 µM | > 100 µM | > 100 µM | > 100 µM | > 100 µM | > 100 µM | > 100 µM | > 100 µM | > 100 | > 100 µM |  |  |  |  |  |  |  |  |  | 
2 | CN1C(=O)c2ccc3ccccc3c2C1=O | > 100 µM | > 100 µM | > 100 µM | > 100 µM | > 100 µM | > 100 µM | > 100 µM | > 100 µM | > 100 | > 100 µM |  |  |  |  |  |  |  |  |  | 
3 | COc1ccc(C(=O)Cn2c(C(=O)c3ccccc3)nc3ccccc32)cc1 | > 100 µM | > 100 µM | > 100 µM | > 100 µM | > 100 µM | > 100 µM | > 28.8 µM | > 100 µM | > 100 | > 100 µM | 2.9 µM | 3.2 µM | 9.9 µM | 4.61 µM | > 27.7 µM | 4.56 µM | 3.05 µM | 6.74 µM | 3.91 µM | 5.08 µM
4 | NC(=N\N=C/c1ccc(O)cc1)/C(N)=N\N=C/c1ccc(O)cc1 | > 100 µM | > 100 µM | > 100 µM | > 100 µM | > 100 µM | > 100 µM | > 100 µM | > 100 µM | > 100 | > 100 µM | > 100 µM | 8.56 µM | > 90.1 µM | 20.2 µM | > 31 µM | > 29 µM | > 24.8 µM | 62.5 µM | > 100 µM | > 100 µM
5 | [2H]C([2H])([2H])NC(=O)c1nnc(NC(=O)C2CC2)cc1Nc1cccc(-c2ncn(C)n2)c1OC | > 100 µM | > 100 µM | > 100 µM | > 100 µM | > 100 µM | > 100 µM | > 100 µM | > 100 µM | > 100 | > 100 µM | 4.12 µM | 96.3 µM | 18.2 µM | 14.9 µM | 34.5 µM | 29.5 µM | 14.2 µM | > 100 µM | > 100 µM | 91.9 µM
6 | O=[N+]([O-])c1cc[n+]([O-])c2ccccc12 | 0.471 µM | 0.8 µM | 3.17 µM | 0.173 µM | 1.13 µM | 2.36 µM | 0.358 µM | 2.91 µM | 2.64 | 1.56 µM | 0.176 µM | 0.347 µM | 1.78 µM | 0.0392 µM | 0.244 µM | 0.222 µM | 0.0439 µM | 0.374 µM | 1.24 µM | 0.328 µM
7 | O=C1NC(N/N=C\C(O)C(O)C(O)C(O)CO)=N/C1=C/c1ccccc1 (centres undefined) | > 100 µM and 39.5 µM | > 100 µM and 41.7 µM | > 100 µM and 33.8 µM | > 100 µM and 48.9 µM | > 100 µM and 36.3 µM | > 100 µM and 28 µM | > 100 µM and 45.2 µM | > 100 µM and 33.3 µM | > 100 | > 100 µM and 36.5 µM | 45.2 µM and 15.8 µM and > 100 µM | > 100 µM and 13.5 µM | 52.7 µM and 14.5 µM and > 100 µM | > 100 µM and 17.6 µM | 75.4 µM and 15.5 µM and > 100 µM | 47.5 µM and 14.5 µM and > 100 µM | 58.8 µM and 19.6 µM and > 100 µM | 58 µM and 15.3 µM and > 100 µM | 37.3 µM and 24 µM and > 100 µM | > 100 µM and 19.3 µM
8 | O=C(NCCN1CCOCC1)OCc1nc2nc(Cl)nc(N3CCOCC3)c2[nH]1 | 6.66 µM | > 100 µM | > 100 µM | 7.79 µM | > 100 µM | > 100 µM | > 100 µM | > 100 µM | > 100 | > 100 µM | 1.68 µM | 3.77 µM | 9.69 µM | 2.37 µM | 2.16 µM | 3.38 µM | 0.701 µM | 4.18 µM | > 100 µM | 3.56 µM
9 | C#C[C@]1(O)CC[C@H]2[C@@H]3CC=C4c5sc(Nc6cc(F)ccc6F)nc5CC[C@]4(C)[C@H]3CC[C@@]21C | 2.76 µM | 3.19 µM | 11.4 µM | 3.44 µM | 5.23 µM | 10.3 µM | 0.934 µM | 3.23 µM | 2.34 | 4.38 µM | 1.37 µM | 1.65 µM | 3.25 µM | 1.63 µM | 2.15 µM | 1.34 µM | 0.196 µM | 1.6 µM | 1.09 µM | 1.78 µM
10 | COc1cc2c3c(n(CCCN)c(=O)c2cc1OC)-c1ccc([N+](=O)[O-])cc1C3=O | 34.1 µM | 13.6 µM | 33.7 µM | 10.6 µM | 27.6 µM | 22.9 µM | 4.91 µM | 18.3 µM | 34.3 | 25.1 µM | 17.4 µM | 2.29 µM | 11.5 µM | 2.11 µM | 11.7 µM | 7.63 µM | 1.75 µM | 3.11 µM | 17.8 µM | 5.13 µM
11 | COC(=O)c1c2c(c(C)[n+]([O-])c1C)C(=O)C=C(NCc1ccccc1)C2=O | 2.96 µM | 1.7 µM | 1.18 µM | 2.68 µM | 1.39 µM | 7.34 µM | 4.28 µM | 2.74 µM | 3.8 | 2.46 µM | 1.57 µM | 0.432 µM | 0.283 µM | 1.35 µM | 0.356 µM | 0.379 µM | 1.36 µM | 1.42 µM | 1.63 µM | 0.632 µM
12 | C=CC(=O)N1CCC(c2ccc(C(N)=O)c(-c3ccc(Oc4ccccc4)cc3)n2)CC1 | 50.1 µM | > 100 µM | > 100 µM | > 100 µM | > 100 µM | > 100 µM | 73.7 µM | > 100 µM | > 100 | > 100 µM | 12.8 µM | 58.1 µM | 21.6 µM | 31.7 µM | 28.2 µM | 29.5 µM | 20.4 µM | 47.9 µM | 51.5 µM | 34.6 µM
13 | O=C(CCN1CCCC1)Nc1ccc2c(NCc3ccccc3)c3ccccc3nc2c1 | 1.9 µM | 2.02 µM | 1.63 µM | 1.51 µM | 1.52 µM | 2.03 µM |  | 1.83 µM | 2.49 | 1.57 µM | 0.406 µM | 0.466 µM | 0.381 µM | 0.394 µM | 0.332 µM | 0.442 µM | 0.411 µM | 0.408 µM | 1.17 µM | 0.392 µM
